Data reported in PubChem BioAssay AID2060886 (Molecular Pharmacology Branch, DTP, NCI, 2025).

Test system: 653999-131-R-J2-PDC complex spheroids, growth inhibition
Assay: Anticancer human tumor 653999-131-R-J2-PDC patient-derived lung adenocarcinoma cell line growth inhibition [RAS]
Conditions: for IC50: curve of first compound; for viability, T/C: stronger effect = lower value; active = viability on the fitted dose curve at most 10% of control; inactive = the rest
Text: RAS pathway inhibitors in Combinations in Complex Spheroids
A high-throughput screen of multi-cell type tumor spheroids was designed to identify active combinations of RAS pathway inhibitors and targeted small molecules. Complex spheroids include a stromal component modeled by human endothelial cells (HUVEC) and fibroblasts modeled by human mesenchymal stem cells (MSCs). The concentration ranges selected for each drug and investigational agent were based upon clinically achievable concentrations if the clinical Cmax of the agent was known.
Compounds. The drugs and investigational agents: abemaciclib (NSC768073), cobimetinib (NSC768068), divarasib (GDC6063, NSC841802), docetaxel (NSC628503), GDC-1971 (RLY-1971, NSC841576), gemcitabine (NSC613327), inavolisib (NSC800729), ipatasertib (NSC767898), KB-0742 (NSC834161), MRTX-1133 (NSC836407), osimertinib (NSC779217), RMC-4630 (NSC839698), RMC-6236 (NSC851965), RMC-6291 (NSC852671), Ro-3306 (NSC812927), sapanisertib (NSC764658), SN-38 (NSC673596), staurosporine (NSC755774), SY5609 (NSC837396), and tovorafenib (DAY101, NSC766906), were obtained from the National Cancer Institute (NCI) Developmental Therapeutics Program Chemical Repository. The FDA-approved anticancer drug set is available from the NCI Developmental Therapeutics Program. […] The stock solutions were prepared in dimethyl sulfoxide (DMSO, Sigma-Aldrich, St. Louis, MO, cat. D2650) at 800-fold the tested concentration and stored at -70 degrees C prior to their use. All drugs and investigational agents were tested over a range starting from a high concentration at or near the clinical Cmax and decreasing in half-log increments. If the clinical Cmax for an agent had not been determined, the highest concentration tested was 10 microM.
Cell Culture. All cells were maintained in an incubator at 37 degrees C and 5% CO2 with 95% humidity. The PDC lines were cultured according to standard operating procedures established by the NCI PDMR. All PDCs were thawed and cultured in Matrigel-coated flasks prepared with a working solution of 1X Ham's F-12 nutrient mix, without supplementation (Invitrogen, Waltham, MA, cat. 11765054), 100 U/mL penicillin-streptomycin (Invitrogen, cat. 15140122), and 2.5% Matrigel (Corning Inc., Corning, NY, cat. 354248) for the first three passages. The 362531-283-R-J2-PDC and 782815-120-R-J1-PDC lines were cultured in 6C/Colon 1B media, which includes advanced DMEM/F-12 (Thermo Fisher Scientific, cat. 12634028), 10 mM HEPES (Thermo Fisher Scientific, cat. 15630080), 1X GlutaMAX supplement (Thermo Fisher Scientific, cat. 35050061), 0.1 mg/mL primocin (InvivoGen, San Diego, CA, cat. ant-pm-2), 10% defined fetal bovine serum, heat inactivated (HyClone Laboratories Inc., Logan, UT, cat. SH30070.03HI), 50% L-WRN conditioned media (ATCC, cat. CRL-3276), 1.25 mM N-Acetyl-L-cysteine (Sigma-Aldrich, cat. A9165), 10 mM nicotinamide (Sigma-Aldrich, cat. N0636), 1X B-27 supplement (Thermo Fisher Scientific, cat. 17504044), 1X N-2 supplement (Thermo Fisher Scientific, cat. 17502048), 50 ng/mL human EGF (Thermo Fisher Scientific, cat. PHG0311), and 10 microM Y-27632 dihydrochloride (Tocris Bioscience, cat. 1254). The K12877-001-R-J1-PDC line was cultured in 6I media, which includes all 6C/Colon 1B media plus 10 ng/mL human FGF-10 (PeproTech, cat. 100-26), 1 ng/mL human FGF-2 (PeproTech, cat. 100-18B), 1 µM prostaglandin E2 (Tocris Bioscience, cat. 2296), […] hydrocortisone (Sigma-Aldrich, cat. H4001), and […] bovine insulin (Sigma-Aldrich, cat. I6634). The K86415-001-R-J1-PDC line was cultured in 6D media, which includes all 6C/Colon 1B media components minus the L-WRN conditioned media. The 485176-168-R4-J1-PDC was cultured in PANC media, which includes all 6C/Colon 1B media plus 100 ng/mL human FGF-10 (PeproTech, cat. 100-26), 500 nM SB-431542 (Selleckchem, cat. S1067), and 10 nM gastrin (Tocris Bioscience, cat. 3006). […]
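Note: spheroids exposed to the agents for seven days before the readout.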

CCc1c2c(nc3ccc(O)cc13)-c1cc3c(c(=O)n1C2)COC(=O)[C@]3(O)CC + CCn1c(-c2cc(N3CCN(C)CC3)cnc2C(C)OC)c2c3cc(ccc31)-c1csc(n1)CC(NC(=O)C1CC1C)C(=O)N1CCCC(N1)C(=O)OCC(C)(C)C2
active: viability, T/C (second compound 0.00949 µM, first compound 0.0949 µM) 9.53% | viability, T/C (second compound 0.00949 µM, first compound 0.3 µM) 6.56% | viability, T/C (second compound 0.03 µM, first compound 0.0949 µM) 6.76% | viability, T/C (second compound 0.03 µM, first compound 0.3 µM) 6.96% | viability, T/C (second compound 0.0949 µM, first compound 0.03 µM) 9.9% | viability, T/C (second compound 0.0949 µM, first compound 0.0949 µM) 7.72% | viability, T/C (second compound 0.0949 µM, first compound 0.3 µM) 5.39% | viability, T/C (second compound 0.3 µM, first compound 0.03 µM) 9.69% | viability, T/C (second compound 0.3 µM, first compound 0.0949 µM) 6.54% | viability, T/C (second compound 0.3 µM, first compound 0.3 µM) 4.62%
3.61 nM: IC50 (second compound 0.000949 µM)
< 0.949 nM: IC50 (second compound 0.00949 µM) | IC50 (second compound 0.03 µM) | IC50 (second compound 0.0949 µM) | IC50 (second compound 0.3 µM)
inactive: viability, T/C (second compound 0.000949 µM, first compound 0.000949 µM) 70.2% | viability, T/C (second compound 0.000949 µM, first compound 0.003 µM) 48.4% | viability, T/C (second compound 0.000949 µM, first compound 0.00949 µM) 42.2% | viability, T/C (second compound 0.000949 µM, first compound 0.03 µM) 25.1% | viability, T/C (second compound 0.000949 µM, first compound 0.0949 µM) 17.2% | viability, T/C (second compound 0.000949 µM, first compound 0.3 µM) 11.2% | viability, T/C (second compound 0.003 µM, first compound 0.000949 µM) 56% | viability, T/C (second compound 0.003 µM, first compound 0.003 µM) 34.1% | viability, T/C (second compound 0.003 µM, first compound 0.00949 µM) 30.6% | viability, T/C (second compound 0.003 µM, first compound 0.03 µM) 17.5% | viability, T/C (second compound 0.003 µM, first compound 0.0949 µM) 14.7% | viability, T/C (second compound 0.003 µM, first compound 0.3 µM) 10.1% | viability, T/C (second compound 0.00949 µM, first compound 0.000949 µM) 39.1% | viability, T/C (second compound 0.00949 µM, first compound 0.003 µM) 27.3% | viability, T/C (second compound 0.00949 µM, first compound 0.00949 µM) 18.9% | viability, T/C (second compound 0.00949 µM, first compound 0.03 µM) 14.1% | viability, T/C (second compound 0.03 µM, first compound 0.000949 µM) 29.8% | viability, T/C (second compound 0.03 µM, first compound 0.003 µM) 18.2% | viability, T/C (second compound 0.03 µM, first compound 0.00949 µM) 17.8% | viability, T/C (second compound 0.03 µM, first compound 0.03 µM) 9.32% | viability, T/C (second compound 0.0949 µM, first compound 0.000949 µM) 23.9% | viability, T/C (second compound 0.0949 µM, first compound 0.003 µM) 15.4% | viability, T/C (second compound 0.0949 µM, first compound 0.00949 µM) 11.4% | viability, T/C (second compound 0.3 µM, first compound 0.000949 µM) 21.1% | viability, T/C (second compound 0.3 µM, first compound 0.003 µM) 14.4% | viability, T/C (second compound 0.3 µM, first compound 0.00949 µM) 11.6%
1.3 nM: IC50 (second compound 0.003 µM)

CCN1CCN(Cc2ccc(Nc3ncc(F)c(-c4cc(F)c5nc(C)n(C(C)C)c5c4)n3)nc2)CC1 + C=CC(=O)N1CCN(c2nc(OCC3CCCN3C)nc3c(F)c(-c4nc(N)cc(C)c4C(F)(F)F)c(Cl)cc23)C(C)C1
inactive: viability, T/C (second compound 0.00316 µM, first compound 0.00316 µM) 90.4% | viability, T/C (second compound 0.00316 µM, first compound 0.01 µM) 79.5% | viability, T/C (second compound 0.00316 µM, first compound 0.0316 µM) 68.9% | viability, T/C (second compound 0.00316 µM, first compound 0.1 µM) 61.7% | viability, T/C (second compound 0.00316 µM, first compound 0.316 µM) 80% | viability, T/C (second compound 0.00316 µM, first compound 1 µM) 75.4% | viability, T/C (second compound 0.01 µM, first compound 0.00316 µM) 93.4% | viability, T/C (second compound 0.01 µM, first compound 0.01 µM) 84.1% | viability, T/C (second compound 0.01 µM, first compound 0.0316 µM) 69.3% | viability, T/C (second compound 0.01 µM, first compound 0.1 µM) 66.9% | viability, T/C (second compound 0.01 µM, first compound 0.316 µM) 67.7% | viability, T/C (second compound 0.01 µM, first compound 1 µM) 69.7% | viability, T/C (second compound 0.0316 µM, first compound 0.00316 µM) 106% | viability, T/C (second compound 0.0316 µM, first compound 0.01 µM) 87.1% | viability, T/C (second compound 0.0316 µM, first compound 0.0316 µM) 75.8% | viability, T/C (second compound 0.0316 µM, first compound 0.1 µM) 65.3% | viability, T/C (second compound 0.0316 µM, first compound 0.316 µM) 68.1% | viability, T/C (second compound 0.0316 µM, first compound 1 µM) 81.7% | viability, T/C (second compound 0.1 µM, first compound 0.00316 µM) 111% | viability, T/C (second compound 0.1 µM, first compound 0.01 µM) 84% | viability, T/C (second compound 0.1 µM, first compound 0.0316 µM) 67.6% | viability, T/C (second compound 0.1 µM, first compound 0.1 µM) 73.7% | viability, T/C (second compound 0.1 µM, first compound 0.316 µM) 63% | viability, T/C (second compound 0.1 µM, first compound 1 µM) 67.1% | viability, T/C (second compound 0.316 µM, first compound 0.00316 µM) 84.8% | viability, T/C (second compound 0.316 µM, first compound 0.01 µM) 98.6% | viability, T/C (second compound 0.316 µM, first compound 0.0316 µM) 78.2% | viability, T/C (second compound 0.316 µM, first compound 0.1 µM) 69.4% | viability, T/C (second compound 0.316 µM, first compound 0.316 µM) 70.7% | viability, T/C (second compound 0.316 µM, first compound 1 µM) 70.5% | viability, T/C (second compound 1 µM, first compound 0.00316 µM) 94% | viability, T/C (second compound 1 µM, first compound 0.01 µM) 81.3% | viability, T/C (second compound 1 µM, first compound 0.0316 µM) 63.4% | viability, T/C (second compound 1 µM, first compound 0.1 µM) 69.7% | viability, T/C (second compound 1 µM, first compound 0.316 µM) 77.6% | viability, T/C (second compound 1 µM, first compound 1 µM) 102%
> 1000 nM: IC50 (second compound 0.00316 µM) | IC50 (second compound 0.01 µM) | IC50 (second compound 0.0316 µM) | IC50 (second compound 0.1 µM) | IC50 (second compound 0.316 µM) | IC50 (second compound 1 µM)
